The values below are quoted from earlier work in PMC11765717, “In Vitro Insights into Bacteriocin-Mediated Modulation of Chicken Cecal Microbiota” (International Journal of Molecular Sciences, 2025).

Series [1] concerns L. ivanovii. The arrangement: method as in PMID 35170996. To be noted: sensitive strain L. ivanovii; ref [64]; cited from earlier work.
For series [2] the following is noted: ref [67],[76]; cited from earlier work.

As for “Pediocin PA-1 (M31L) (KYYGNGVTCGKHSCSVDWGKATTCIINNGALAWATGGHQGNHKC; UniProt P29430 19-62, looked up, variant M31L)”, the “MIC (µg/mL)” value in series [1] is reported as 0.09 µg/mL. Further, the “Antibacterial activity in conditions mimicking the small intestine, in words” value in series [2] is on record as “losing its antibacterial activity completely”.
